Tests used:
[1] = test system: L-DTP (EPI) cells; test: CCK8 survival of drug-resistant L-DTP (EPI) cells, single and combined drugs; format: cell-based; settings: drug-resistant L-DTP (EPI) cells produced by continuously adding EPI for 9 days, optimal concentration of Pola
Protocol: (§1) Furthermore, CCK8 is used and drugs are used in drug-resistant L-DTP cells in a single form and combined form separately.
(§2) After the cells adhered to walls, a series of Pola from high to low concentrations were prepared. A most optimal concentration of the Pola was found. […] Cl values of the L-DTP cells were calculated by Calcusyn software.

[2] = test system: L-DTP (Enza) cells; test: CCK8 survival of drug-resistant L-DTP (Enza) cells, single and combined drugs; format: cell-based; settings: drug-resistant L-DTP (Enza) cells produced by continuously adding Enza for 9 days, optimal concentration of Pola
Protocol: as §1, §2

[3] = test system: mouse model of spontaneous prostate cancer with overexpression of C-MYC (Hi-Myc); test: Hi-Myc mouse model of prostate cancer, prostate weight and HE staining (Example 4); format: in vivo; settings: for Average prostate weight of mice: 30 days administration after relapse caused by drug resistance, gavage once every three days, Enza 10 mg/Kg, Pola 20 mg/Kg, combined 10 + 20 mg/Kg, NC group 100.1 mg; for average prostate weight: 10 mg/Kg gavage once every three days
From the text: A mouse model of spontaneous prostate cancer with overexpression of C-MYC (Hi-Myc) was established. […] A part of the mice were sacrificed and their prostate cancers were photographed and weighed. […]. The remaining mice were continuously administered according to the above method for 30 days. […]. […] At this time, the mice were divided into different groups immediately to study effects of combined use of drugs.
(§3) The mice were correspondingly gavaged. […] The mice were sacrificed and their prostate cancers were photographed, weighed and subjected to immunohistochemistry.

[4] = test system: mouse model of spontaneous prostate with overexpression of C-MYC (Hi-Myc); test: Hi-Myc mouse model of prostate cancer, prostate weight (Example 5); format: in vivo; settings: for Average prostate weight of mice: 30 days administration after relapse, gavage once every three days, Enza 30 mg/Kg, Pola 30 mg/Kg, combined Enza 10 mg/Kg + Pola 20 mg/Kg, NC group 105.4 mg
From the text: A mouse model of spontaneous prostate with overexpression of C-MYC (Hi-Myc) was established. […] A part of the mice were sacrificed and their prostate cancers were photographed and weighed. […] The remaining mice were continuously administered according to the above method for 30 days. […] The mice were correspondingly gavaged. […] The mice were sacrificed and their prostate cancers were photographed, weighed and subjected to immunohistochemistry.

[5] = test system: PRDX5; test: Immunohistochemistry of PRDX5 in prostate tissue sections (Example 4); format: in vivo, mouse; settings: 30 days administration after relapse, Enza 10 mg/Kg, Pola 20 mg/Kg, combined 10 + 20 mg/Kg, NC group 61.7
From the text: as §3

[6] = test system: AR; test: Immunohistochemistry of AR in prostate tissue sections (Example 4); format: in vivo, mouse; settings: 30 days administration after relapse, Enza 10 mg/Kg, Pola 20 mg/Kg, combined 10 + 20 mg/Kg, NC group 94
From the text: as §3

[7] = 10 mg/Kg gavage once every three days for 30 days

Compound	inhibition rate [1]	inhibition rate [2]	prostate weight compared with the NC group [3, 7]	Average prostate weight of mice [3] [mg]	average prostate weight ([3]; after 30 days of continuous administration, NC group 85.3 mg) [mg]	average prostate weight ([3]; after 60 days of continuous administration, relapse, NC group 95.6 mg) [mg]	prostate weight compared with the NC group [4, 7]	Average prostate weight of mice [4] [mg]	Expression amount of PRDX5/% [5] [%]	Expression amount of AR/% [6] [%]	effect on drug-resistant CRPC (prostate weight, in words) ([3]; 30 days administration after relapse, compared with single use / between single groups)
CC(C)(c1ccc(OCC(O)CO)cc1)c1ccc(OCC(O)CCl)cc1 (stereo not drawn) [EPI, EPI-001]	no obvious inhibitory effect	–	–	–	–	–	–	–	–	–	–
CNC(=O)c1ccc(N2C(=S)N(c3ccc(C#N)c(C(F)(F)F)c3)C(=O)C2(C)C)cc1F [Enza, enzalutamide]	–	no obvious inhibitory effect	reduced by half	83.3	41.2	78.4	reduced by half	85.9	93.6	–	–
NCCC(=O)[N-][C@@H](Cc1c[nH]cn1)C(=O)[O-].[Zn+2] [Pola, polaprezinc]	no obvious inhibition rate	no obvious inhibition rate	–	80.625	–	–	–	81.2	74.2	70.4	does not have a significant effect

— patent US12533361B2, “Use of polaprezinc in preparing drug for treating castration-resistant prostate cancer” (Jiangnan University, priority 2021, dated 2026)
